In PubChem BioAssay (NCI):
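Exposure lasted 48 hours, with cells grown in 96-well plates and compounds tested at five concentrations. Definition used: TGI = concentration required for complete inhibition of growth.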

Legend:
Assay in all cases: NCI tumour cell line growth inhibition, 48 h
HOP-92 NSCLC = tested on: HOP-92 NSCLC
HOP-62 NSCLC = tested on: HOP-62 NSCLC
M14 melanoma = tested on: M14 melanoma
SNB-75 CNS = tested on: SNB-75 CNS
K-562 leukemia = tested on: K-562 leukemia
COLO 205 colon = tested on: COLO 205 colon
CCRF-CEM leukemia = tested on: CCRF-CEM leukemia
OVCAR-3 ovarian = tested on: OVCAR-3 ovarian
UACC-257 melanoma = tested on: UACC-257 melanoma
MALME-3M melanoma = tested on: MALME-3M melanoma
IGROV1 ovarian = tested on: IGROV1 ovarian
EKVX NSCLC = tested on: EKVX NSCLC
SK-OV-3 ovarian = tested on: SK-OV-3 ovarian
KM12 colon = tested on: KM12 colon
NCI-H460 lung = tested on: NCI-H460 lung
SK-MEL-2 melanoma = tested on: SK-MEL-2 melanoma
ACHN renal = tested on: ACHN renal
T-47D breast = tested on: T-47D breast
NCI-H522 lung = tested on: NCI-H522 lung
SK-MEL-5 melanoma = tested on: SK-MEL-5 melanoma
A549 NSCLC = tested on: A549 NSCLC
BT-549 breast = tested on: BT-549 breast
A498 renal = tested on: A498 renal
CAKI-1 renal = tested on: CAKI-1 renal
NCI-H226 lung = tested on: NCI-H226 lung
SF-539 CNS = tested on: SF-539 CNS
RXF 393 renal = tested on: RXF 393 renal
MOLT-4 leukemia = tested on: MOLT-4 leukemia
SF-268 CNS = tested on: SF-268 CNS
SF-295 CNS = tested on: SF-295 CNS
PC-3 prostate = tested on: PC-3 prostate
OVCAR-8 ovarian = tested on: OVCAR-8 ovarian
SK-MEL-28 melanoma = tested on: SK-MEL-28 melanoma
OVCAR-4 ovarian = tested on: OVCAR-4 ovarian
786-0 renal = tested on: 786-0 renal
HS 578T breast = tested on: HS 578T breast
HCC-2998 colon = tested on: HCC-2998 colon
NCI/ADR-RES ovarian = tested on: NCI/ADR-RES ovarian
MDA-MB-435 = tested on: MDA-MB-435
UO-31 renal = tested on: UO-31 renal
MCF7 breast = tested on: MCF7 breast
HCT-15 colon = tested on: HCT-15 colon
OVCAR-5 ovarian = tested on: OVCAR-5 ovarian
UACC-62 melanoma = tested on: UACC-62 melanoma
SN12C renal = tested on: SN12C renal
SW-620 colon = tested on: SW-620 colon
DU-145 prostate = tested on: DU-145 prostate
U251 CNS = tested on: U251 CNS
LOX IMVI melanoma = tested on: LOX IMVI melanoma
NCI-H23 lung = tested on: NCI-H23 lung
MDA-MB-231 breast = tested on: MDA-MB-231 breast
HT29 colon = tested on: HT29 colon
SR leukemia = tested on: SR leukemia
MDA-N = tested on: MDA-N
SNB-19 CNS = tested on: SNB-19 CNS
HCT-116 colon = tested on: HCT-116 colon
TK-10 renal = tested on: TK-10 renal
RPMI-8226 leukemia = tested on: RPMI-8226 leukemia
HL-60(TB) leukemia = tested on: HL-60(TB) leukemia
M19-MEL melanoma = tested on: M19-MEL melanoma
SNB-78 CNS = tested on: SNB-78 CNS
DMS 273 small cell lung = tested on: DMS 273 small cell lung
HOP-18 NSCLC = tested on: HOP-18 NSCLC
XF 498 CNS = tested on: XF 498 CNS
LXFL 529 NSCLC = tested on: LXFL 529 NSCLC
DLD-1 colon = tested on: DLD-1 colon
DMS 114 small cell lung = tested on: DMS 114 small cell lung
KM20L2 colon = tested on: KM20L2 colon

Measured: TGI

Cc1cccc(C(=O)O)c1CC1NCCC2c3ccccc3NC12 (centres undefined)
not listed: M19-MEL melanoma | SNB-78 CNS | DMS 273 small cell lung | HOP-18 NSCLC | XF 498 CNS | LXFL 529 NSCLC | DLD-1 colon | DMS 114 small cell lung | KM20L2 colon
> 100 µM: all other assays above

CC1=C/C(=C2/N=C(N(C)C)SS2)C(C)=N1
not listed: CCRF-CEM leukemia | SK-MEL-2 melanoma | T-47D breast | SK-MEL-5 melanoma | BT-549 breast | PC-3 prostate | HS 578T breast | NCI/ADR-RES ovarian | MDA-MB-435 | MCF7 breast | UACC-62 melanoma | DU-145 prostate | MDA-MB-231 breast | MDA-N
> 100 µM: all other assays above

COc1cc2cc3c4c(cc(OC)c(OC)c4c2cc1OC)CCN3C(=O)CCC(=O)O
not listed: SNB-75 CNS | NCI-H460 lung | T-47D breast | BT-549 breast | PC-3 prostate | OVCAR-8 ovarian | HS 578T breast | NCI/ADR-RES ovarian | MDA-MB-435 | MCF7 breast | HCT-15 colon | DU-145 prostate | MDA-MB-231 breast | MDA-N | M19-MEL melanoma | HOP-18 NSCLC | XF 498 CNS
> 100 µM: all other assays above

CN1C(=O)C(=CN(C)c2ccccc2)C(=O)N(C)C1=O
not listed: HOP-92 NSCLC | HOP-62 NSCLC | COLO 205 colon | SK-OV-3 ovarian | T-47D breast | NCI-H522 lung | BT-549 breast | SF-268 CNS | PC-3 prostate | HS 578T breast | NCI/ADR-RES ovarian | MDA-MB-435 | MCF7 breast | DU-145 prostate | NCI-H23 lung | MDA-MB-231 breast | HT29 colon | MDA-N
> 100 µM: all other assays above
